Test [1] relates to hispidin-synthase of Neonothopanus nambi. The test can be described thus: Determination of hispidin synthase functionality. Format: biochemical. Particulars: 20 μM caffeic acid. The text has this:
(§1) Polyhistidine (H is tag) coding sequence was operatively attach ed to 5′-ends of nucleic acids coding hispidin-synthase and caffeylpyruvate hydrolase of Neonothopanus nambi, obtained according to Example 9, and the obtained structures were cloned into pET-23 vector by means of restriction endonucleases NotI and SacI. The vectors were used for transformation of Escherichia coli cells of BL21-DE3-codon+ strain, performed by electroporation. The transformed cells were dispersed in Petri dishes with LB medium, comprising 1.5% of agar, 100 μg/ml of ampicillin, and incubated overnight at 37° C. […]
(§2) For determination of hispidin synthase functionality 30 μl of isolated recombinant protein solution were put into a glass tube, comprising 100 μl of the buffer (0.2 M of Na-phosphate buffer, 0.5 M of Na2SO4, 0.1% dodecylmaltoside (DDM) pH 8.0, all components—Sigma-Aldrich, USA), 0.5 μl of purified recombinant luciferase of Neonothopanus nambi, obtained according to Example 4, 1 mM of NADPH (Sigma-Aldrich, USA), 15 μl of purified recombinant hispidin hydroxylase of Neonothopanus nambi, obtained according to Example 4, 10 mM of ATP (ThermoFisher Scientific, USA), 1 mM of CoA (Sigma-Aldrich, USA), 1 mM of malonyl-CoA (Sigma-Aldrich, USA). […] Maximum emission of the emitted luminescence was 520-535 nm.

Test [2] has as its system Autonomously bioluminescent transgenic plants Nicotiana benthamiana. Put plainly: Effect of external adding caffeic acid on transgenic plant bioluminescence. Format: in vivo. Conditions: 0.4-6.4 g/l, two hours of incubation. As for the experimental part: Autonomously bioluminescent transgenic plants Nicotiana benthamiana, obtained according to Example 16, were transferred to soil and cultured within eight weeks. Then, plant stem was cut and placed in water for two hours, after that, bioluminescence intensity was measured by IVIS Spectrum In Vivo Imaging System (Perkin Elmer). Then, plants were transferred to one of five water solutions at caffeic acid concentration of 0.4 g/l, 0.8 g/l, 1.6 g/l, 3.2 g/l, or 6.4 g/l, and control plants were placed in water. After two more hours of incubation in the caffeic acid solution or in water bioluminescence intensity was measured again.

Test [3] deals with caffeylpyruvate hydrolase of Neonothopanus nambi. Put plainly: Determination of caffeylpyruvate hydrolase functionality. Format: biochemical. Conditions: 25 μM caffeoyl pyruvate.
Text: as §1
For determination of caffeylpyruvate hydrolase functionality 10 μl of isolated recombinant protein solution were put into a glass tube, comprising 100 μl of the buffer (0.2 M of Na-phosphate buffer, 0.5 M of Na2SO4, 0.1% dodecylmaltoside (DDM) pH 8.0, 0.5 μl of luciferase of Neonothopanus nambi, 1 mM of NADPH (Sigma-Aldrich, USA), 15 μl of hispidin hydroxylase 10 mM of ATP (ThermoFisher Scientific, USA), 1 mM of CoA (Sigma-Aldrich, USA), 1 mM of malonyl-CoA (Sigma-Aldrich, USA), 30 μl of purified recombinant hispidin synthase. The glass tube was placed into a luminometer GloMax 20/20 (Promega, USA). […] Maximum emission of the emitted luminescence was 520-535 nm.

Test [4] concerns Neonothopanus nambi luciferase. The test can be described thus: Bioluminescence reaction of biosynthetic 3-hydroxyhispidin. Conditions: 3-hydroxyhispidin purified from fermenter medium by HPLC. Format: biochemical. The text has this:
Expression cassette, comprising nucleic acid coding Neonothopanus nambi hispidin hydroxylase (SEQ ID NOs 1, 2) under control of J23100 promoter, was obtained synthetically and cloned into bacterial expression vector comprising spectinomycin resistance gene. The obtained vector was transformed into E. coli cells expressing Neonothopanus nambi hispidin-synthase, Zeocin resistance gene and NpgA gene, obtained according to Example 12. The obtained bacteria were used for producing 3-hydroxyhispidin by fermentation according to the protocol described in Example 12, however with adding of spectinomycin at concentration of […] in all media used for cultivation. After 48 hours of cultivation the 3-hydroxyhispidin concentration in the medium was 2.3 g/l.

Test [5] deals with hispidin hydroxylase and luciferase fusion protein. Put plainly: Bioluminescence of HEK293T cells expressing hispidin hydroxylase and luciferase fusion protein. Conditions: 24 hours after transfection, 1 million of cells in 0.5 ml PBS; hispidin 10 μg per 1 million of cells. Format: cell-based, Neonothopanus nambi. The text has this:
Humanized DNA sequences coding hispidin-hydroxylase and luciferase of Neonothopanus nambi, obtained according to Example 2, were operatively cross-linked to each other by flexible short peptide linker with amino acid sequence GGSGGSGGS (SEQ ID NOs:115). Nucleotide and amino acid sequences of the obtained fused protein are shown in SEQ ID NO 101 and 102. Nucleic acid coding fused protein was cloned into pEGFP-N1 vector (Clontech, USA) instead of EGFP gene under Cytomegaloviral promoter control. The obtained structure was transfected into HEK293T cells. Analogous vectors, comprising individual genes of hispidin hydroxylase and luciferase, were also co-transfected. Transfection was performed by transfection agent FuGENE HD (Promega, USA) according to the manufacturer's protocol. 24 hours after transfection 1 million of cells were resuspended in 0.5 ml of PBS, and luminescence without adding hispidin and with addition of hispidin (10 μg per 1 million of cells) was recorded by luminometer.

Test [6] has as its system PKS from Hydrangea macrophylla. Put plainly: Functionality of recombinant PKS. Format: biochemical. Particulars: 20 μM caffeyl-CoA. How it is done: as §2, with “Nucleic acid coding PKS from Hydrangea macrophylla (SEQ ID NOs: 124, 125) was used for producing recombinant protein according to the technique described in Example 4. Presence” for “For determination”, “the expected recombinant product was confirmed by electrophoresis as bands of the expected length were available. Aliquots of the isolated recombinant protein were used for verifying” for “hispidin synthase”, “functionality of:” for “functionality”, “USA). The glass tube was placed into a luminometer GloMax 20/20 (Promega, USA).” for “USA).”

The subject of a further test is Arabidopsis thaliana. The test can be described thus: Caffeylpyruvate hydrolase effect on luminescence of autonomously bioluminescent plants. Format: in vivo. Conditions: on average. The text has this: For the purpose of study of caffeylpyruvate hydrolase effect on luminescence of autonomously bioluminescent organisms there was used a binary vector for agrobacterium transformation comprising coding sequences of Neonothopanus nambi luciferase, Neonothopanus nambi hispidin hydroxylase, Neonothopanus nambi hispidin synthase, Neonothopanus nambi caffeylpyruvate hydrolase and kanamycin resistance gene, and each gene is under control of 35S promoter from cauliflower mosaic virus, obtained according to Example 16, and control vector characterized in that caffeylpyruvate hydrolase sequence was removed from it. The vectors were used for transformation of Arabidopsis thaliana in the same conditions according to the protocol described in Example 16. Bioluminescence was visualized by means of IVIS Spectrum In Vivo Imaging System (Perkin Elmer). […] The data provided indicate that expression of caffeylpyruvate hydrolase enables to increase bioluminescent cascade efficiency, that results in increasing the intensity of luminescence emitted by plants.

The test system of test [7] is recombinant hispidin hydroxylases. The test can be described thus: Functionality test of isolated recombinant hispidin hydroxylases in luminometer. Format: biochemical. Conditions: 0.2 μM hispidin, 1 mM NADPH, Neonothopanus nambi luciferase. As for the experimental part: Polyhistidine sequence (His tag) was operatively attached to 5′-end of nucleic acids coding hispidin-3-hydroxylases and luciferase from Neonothopanus nambi, obtained according to the examples 1 and 2. The obtained structures were cloned into pET-23 vector by means of restriction endonucleases BamHI and HindIII. The vector was used for transformation of Escherichia coli cells of BL21-DE3 strain. The cells were dispersed in Petri dishes with LB medium, comprising 1.5% of agar, 100 μg/ml of ampicillin, and incubated overnight at 37° C. Then, Escherichia coli colonies were transferred into 4 ml of liquid LB medium laced with ampicillin, incubated overnight at 37° C. with fluctuation. 1 ml of overnight culture was transferred into 100 ml of Overnight Express Autoinduction medium (Novagen), where ampicillin was preliminarily added to. The culture was grown at 37° C. within 2.5 hours until reaching optical density of 0.6 OE at 600 nm, and then it was grown at room temperature within 16 hours. […]
Aliquots of isolated recombinant hispidin hydroxylases were used for testing functionality and stability. […] In all cases the luminescence intensity when using hispidin was the highest when using Neonothopanus nambi hispidin hydroxylase and the lowest when using Armillaria mellea hispidin hydroxylase.

In the case of `O=C(O)/C=C/c1ccc(O)c(O)c1` [caffeic acid], the “bioluminescence of reaction mixture” value in test [1] is listed as “demonstrated bioluminescence”. In addition, the “change of bioluminescence intensity vs before placing in caffeic acid solution” value in test [2] is recorded as “increased”.
As for `O=C(/C=C/c1ccc(O)c(O)c1)/C=C(/O)C(=O)O` [caffeoyl pyruvate, (2E,5E)-6-(3,4-dihydroxyphenyl)-2-hydroxy-4-oxohexa-2,5-diene acid], in test [3], the “Bioluminescence of the reaction mixture” value is “Bioluminescence of the reaction mixture was detected”.
With `O=c1oc(/C=C/c2ccc(O)c(O)c2)cc(O)c1O` [3-hydroxy hispidin, (E)-6-(3,4-dihydroxystyryl)-3,4-dihydroxy-2H-pyran-2-one], the “activity in bioluminescence reaction” value in test [4] is “active in bioluminescence reaction”. Also, in test [5], the “cell luminescence on addition” value is reported as “caused bioluminescent signal”.
For `CC(C)(COP(=O)(O)OP(=O)(O)OC[C@H]1O[C@@H](n2cnc3c(N)ncnc32)[C@H](O)[C@@H]1OP(=O)(O)O)[C@@H](O)C(=O)NCCC(=O)NCCSC(=O)/C=C/c1ccc(O)c(O)c1` [caffeyl-CoA], in test [6], the “bioluminescence of reaction mixtures” value is “demonstrated bioluminescence”.

B1: Neonothopanus nambi caffeylpyruvate hydrolase: enzyme converting caffeylpyruvate to caffeic acid, expressed in transgenic plants (protein, listed as Neonothopanus nambi)
chain: MAPISSTWSRLIRFVAIETSLVHIGEPIDATMDVGLARREGKTIQAYEIIGSGSALDLSAQVSKNVLTVRELLMPLSREEIKTVRCLGLNYPVHATEANVAVPKFPNLFYKPVTSLIGPDGLITIPSVVQPPKEHQSDYEAELVIVIGKAAKNVSEDEALDYVLGYTAANDISFRKHQLAVSQWSFSKGFGSLLLTIRMAQTHSGNINRFSRDQIFNVKKTISFLSQGTTLEPGSIILTGTPDGVGFVRNPPLYLKDGDEVMTWIGSGIGTLANTVQEEKTCFASGGHE
For the molecule B1, in the test with Arabidopsis thaliana, the “brightness of bioluminescence vs plants expressing only luciferase, hispidin hydroxylase and hispidin synthase” value worked out at 8.3 times.

B2: Neonothopanus nambi hispidin hydroxylase: isolated recombinant hispidin hydroxylase from Neonothopanus nambi (protein, listed as Neonothopanus nambi)
chain: MASFENSLSVLIVGAGLGGLAAAIALRRQGHVVKIYDSSSFKAELGAGLAVPPNTLRSLQQLGCNTENLNGVDNLCFTAMGYDGSVGMMNNMTDYREAYGTSWIMVHRVDLHNELMRVALDPGGLGPPATLHLNHRVTFCDVDACTVTFTNGTTQSADLIVGADGIRSTIRRFVLEEDVTVPASGIVGFRWLVQADALDPYPELDWIVKKPPLGARLISTPQNPQSGVGLADRRTIIIYACRGGTMVNVLAVHDDERDQNTADWSVPASKDDLFRVFHDYHPRFRRLLELAQDINLWQMRVVPVLKKWVNKRVCLLGDAAHASLPTLGQGFGMGLEDAVALGTLLPKGTTASQIETRLAVYEQLRKDRAEFVAAESYEEQYVPEMRGLYLRSKELRDRVMGYDIKVESEKVLETLLRSSNSA
Take B2: in test [7], the “luminescence intensity when using hispidin (comparison of hispidin hydroxylases)” value was “highest”.

The values are drawn from US20240117385A1, “ENZYMES OF LUCIFERIN BIOSYNTHESIS AND USE THEREOF” (LIGHT BIO, INC., priority 2018, published 2024).
